Active and inactive are the calls of the source. No cut-off for these calls is given here.
Key:
[1] = molecular target: T1, Nuclear receptor ROR-gamma (Homo sapiens, UniProt P51449); assay: Inverse agonist activity at N-terminal 6-His-tagged/APC-labeled human RORgammat LBD extracted from Escherichia coli assessed as inhibition of europium-labeled SRC-1 recruitment incubated for 3 hrs by TR-FRET analysis
T1 sequence (P51449 whole entry): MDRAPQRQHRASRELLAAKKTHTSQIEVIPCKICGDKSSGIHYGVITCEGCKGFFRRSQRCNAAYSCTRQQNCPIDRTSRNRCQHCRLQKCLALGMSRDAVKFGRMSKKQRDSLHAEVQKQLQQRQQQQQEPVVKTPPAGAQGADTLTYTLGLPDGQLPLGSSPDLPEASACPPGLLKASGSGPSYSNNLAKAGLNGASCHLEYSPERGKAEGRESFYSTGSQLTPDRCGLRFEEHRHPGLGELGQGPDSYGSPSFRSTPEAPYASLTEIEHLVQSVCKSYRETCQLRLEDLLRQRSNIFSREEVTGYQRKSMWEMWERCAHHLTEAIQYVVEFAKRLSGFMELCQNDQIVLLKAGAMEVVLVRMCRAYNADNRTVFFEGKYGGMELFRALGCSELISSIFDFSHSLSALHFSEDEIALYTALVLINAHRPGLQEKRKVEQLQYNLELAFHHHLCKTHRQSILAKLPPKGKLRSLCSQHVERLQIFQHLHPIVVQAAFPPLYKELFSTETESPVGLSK

[2] = molecular target: T1, Nuclear receptor ROR-gamma; assay: Inverse agonist activity at GAL4 DNA-binding domain fused RORgamma (unknown origin) transfected in HEK293T cells co-transfected with GAL4-promoter driven luciferase reporter gene assessed as inhibition of RORgammat transcription incubated for 18 to 20 hrs by plate reader analysis; assay type: cell-based
HeLa = assay: Antiproliferative activity against human HeLa cells assessed as inhibition of colony formation at 2 to 8 uM incubated for 7 days by crystal violet staining based light microscopic analysis; assay type: toxicity, cell-based; details: 168 h, dose 2-8 µM, time 7 day
HUVEC = assay: Antiproliferative activity against HUVEC cells assessed as inhibition of colony formation at 2 to 8 uM incubated for 7 days by crystal violet staining based light microscopic analysis; assay type: toxicity, cell-based; details: human, 168 h, dose 2-8 µM, time 7 day
[3] = Toxicity in chicken type II collagen-induced arthritis DBA/1 mouse model assessed as behavioral abnormalities at 20 mg/kg/day, po measured after 42 days; assay type: organism-based; details: in vivo, 1008 h, time 42 day
[4] = Toxicity in chicken type II collagen-induced arthritis DBA/1 mouse model assessed as body weight loss at 20 mg/kg/day, po measured after 42 days; assay type: organism-based; details: in vivo, 1008 h, time 42 day
Mus musculus [5] = assay: Antiarthritic activity in chicken type II collagen-induced arthritis DBA/1 mouse model assessed as reduction in clinical score at 20 mg/kg/day, po measured after 42 days; assay type: functional, organism-based; details: time 42.0 day
[6] = Toxicity in chicken type II collagen-induced arthritis DBA/1 mouse model assessed as increase in thymic cortex to medulla ratio at 20 mg/kg/day, po administered for 2 weeks by H and E staining based analysis; assay type: organism-based; details: in vivo, 336 h
[7] = Toxicity in chicken type II collagen-induced arthritis DBA/1 mouse model assessed as signs of thymic enlargement at 20 mg/kg/day, po administered for 2 weeks by H and E staining based analysis; assay type: organism-based; details: in vivo, 336 h
[8] = Toxicity in chicken type II collagen-induced arthritis DBA/1 mouse model assessed as signs of lymphoma at 20 mg/kg/day, po administered for 2 weeks by H and E staining based analysis; assay type: organism-based; details: in vivo, 336 h
[9] = Toxicity in chicken type II collagen-induced arthritis DBA/1 mouse model assessed as morphological changes in thymocytes at 20 mg/kg/day, po administered for 2 weeks by H and E staining based analysis; assay type: organism-based; details: in vivo, 336 h
Mus musculus [10] = assay: Antiarthritic activity in chicken type II collagen-induced arthritis DBA/1 mouse model assessed as improvement in arthritic symptoms at 20 mg/kg/day, po administered for 2 weeks by H and E staining based analysis; assay type: functional, organism-based
Mus musculus [11] = assay: Antiarthritic activity in chicken type II collagen-induced arthritis DBA/1 mouse model assessed as reduction in fore paw erythema at 20 mg/kg/day, po administered for 2 weeks by H and E staining based analysis; assay type: functional, organism-based
Mus musculus [12] = assay: Antiarthritic activity in chicken type II collagen-induced arthritis DBA/1 mouse model assessed as reduction in fore paw swelling at 20 mg/kg/day, po administered for 2 weeks by H and E staining based analysis; assay type: functional, organism-based
Mus musculus [13] = assay: Antiarthritic activity in chicken type II collagen-induced arthritis DBA/1 mouse model assessed as reduction in fore paw thickness at 20 mg/kg/day, po administered for 2 weeks by H and E staining based analysis; assay type: functional, organism-based
Mus musculus [14] = assay: Antiarthritic activity in chicken type II collagen-induced arthritis DBA/1 mouse model assessed as reduction in hind paw erythema at 20 mg/kg/day, po administered for 2 weeks by H and E staining based analysis; assay type: functional, organism-based
Mus musculus [15] = assay: Antiarthritic activity in chicken type II collagen-induced arthritis DBA/1 mouse model assessed as reduction in hind paw swelling at 20 mg/kg/day, po administered for 2 weeks by H and E staining based analysis; assay type: functional, organism-based
Mus musculus [16] = assay: Antiarthritic activity in chicken type II collagen-induced arthritis DBA/1 mouse model assessed as reduction in hind paw thickness at 20 mg/kg/day, po administered for 2 weeks by H and E staining based analysis; assay type: functional, organism-based

| IC50 [1] | SMILES | other results |
| --- | --- | --- |
| 310 nM | CCc1ccc2c(c1)CCC(C)(C)N2S(=O)(=O)c1ccc(OCC2CCOCC2)c(CO)c1 |  |
| 8.4 nM | CC[C@H]1CCc2cc(C(C)C)ccc2N1S(=O)(=O)c1ccc(OCC2CCOCC2)c(CO)c1 | IC50 [2]: 22.1 nM |
| 858 nM | CCc1ccc2c(c1)CCCN2S(=O)(=O)c1ccc(OCC2CCOCC2)c(CO)c1 |  |
| 212 nM | CCc1ccc2c(c1)CCC(CC)N2S(=O)(=O)c1ccc(OCC2CCOCC2)c(CO)n1 (racemic) |  |
| 300 nM | CCc1ccc2c(c1)CCC(CC)N2S(=O)(=O)c1ccc(OCc2ccncn2)c(CO)c1 (racemic) |  |
| 459 nM | CCc1ccc2c(c1)CCC(CC)N2S(=O)(=O)c1ccc(OCCC(C)(C)O)c(CO)c1 (racemic) |  |
| 689 nM | CC1CCc2cc(C#N)ccc2N1S(=O)(=O)c1ccc(OCC2CCOCC2)c(CO)c1 (racemic) |  |
| 1860 nM | CCc1ccc2c(c1)CCC(CC)N2S(=O)(=O)c1ccc(OCC2CCOCC2)c(S(C)(=O)=O)c1 (racemic) |  |
| 36 nM | CCc1ccc2c(c1)CC(C)CN2S(=O)(=O)c1ccc(OCC2CCOCC2)c(CO)c1 (racemic) |  |
| 3120 nM | CCc1ccc2c(c1)CCC(CC)N2S(=O)(=O)c1ccc(C(CO)N2CCOCC2)c(CO)c1 (racemic) |  |
| 11 nM | CCc1ccc2c(c1)CCC(CC)N2S(=O)(=O)c1ccc(OCC2CCOCC2)c(CO)c1 (racemic) | Activity (HeLa): Non-Toxic; Activity (HUVEC): Non-Toxic |
| 1760 nM | CCc1ccc2c(c1)CCC(CC)N2S(=O)(=O)c1ccc(OC2CN(C(C)=O)C2)c(CO)c1 (racemic) |  |
| 24 nM | CCc1ccc2c(c1)CCC(C)N2S(=O)(=O)c1ccc(OCC2CCOCC2)c(CO)c1 (racemic) |  |
| 14 nM | CCc1ccc2c(c1F)CCC(CC)N2S(=O)(=O)c1ccc(OCC2CCOCC2)c(CO)c1 (racemic) |  |
| 21 nM | CCC1CCc2cc(C(F)(F)F)ccc2N1S(=O)(=O)c1ccc(OCC2CCOCC2)c(CO)c1 (racemic) |  |
| 655 nM | CCc1ccc2c(c1)C(C)CCN2S(=O)(=O)c1ccc(OCC2CCOCC2)c(CO)c1 (racemic) |  |
| 170 nM | CCc1ccc2c(c1)CCC(CC)N2S(=O)(=O)c1ccc(OC2CCN(S(C)(=O)=O)CC2)c(CO)c1 (racemic) |  |
| 16 nM | CCC1CCc2cc(CC(C)(F)F)ccc2N1S(=O)(=O)c1ccc(OCC2CCOCC2)c(CO)c1 (racemic) |  |

| IC50 [1] | SMILES | other results |
| --- | --- | --- |
| 201 nM | CCc1ccc2c(c1)CCC(CC)N2S(=O)(=O)c1ccc(C(O)CC2CCOCC2)c(CO)c1 (racemic) |  |
| 1400 nM | CCC1CCc2cc(C(C)(C)O)ccc2N1S(=O)(=O)c1ccc(OCC2CCOCC2)c(CO)c1 (racemic) |  |
| 1430 nM | CCc1ccc2c(c1)CCC(CC)N2S(=O)(=O)c1ccc(OCCS(C)(=O)=O)c(CO)c1 (racemic) |  |
| 21 nM | CC1CCc2cc(C3CC3)ccc2N1S(=O)(=O)c1ccc(OCC2CCOCC2)c(CO)c1 (racemic) |  |
| 23 nM | CCc1ccc2c(c1)CCC(C(F)(F)F)N2S(=O)(=O)c1ccc(OCC2CCOCC2)c(CO)c1 (racemic) |  |
| 23 nM | CCC1CCc2cc(CC(F)(F)F)ccc2N1S(=O)(=O)c1ccc(OCC2CCOCC2)c(CO)c1 (racemic) |  |
| 146 nM | CCc1ccc2c(c1)CCC(CC)N2S(=O)(=O)c1ccc(OCC2CCS(=O)(=O)CC2)c(CO)c1 (racemic) |  |
| 12 nM | C=C(C)c1ccc2c(c1)CCC(CC)N2S(=O)(=O)c1ccc(OCC2CCOCC2)c(CO)c1 (racemic) |  |
| 2 nM | CCc1ccc2c(c1)CCC(C(C)C)N2S(=O)(=O)c1ccc(OCC2CCOCC2)c(CO)c1 (racemic) |  |
| 3420 nM | CCc1ccc2c(c1)CCC(CO)N2S(=O)(=O)c1ccc(OCC2CCOCC2)c(CO)c1 (racemic) |  |
| 70 nM | CCC1CCc2cc(C(C)(C)C)ccc2N1S(=O)(=O)c1ccc(OCC2CCOCC2)c(CO)c1 (racemic) |  |
| 576 nM | CCc1ccc2c(c1)CCC(CC)N2S(=O)(=O)c1ccc(OCC2CCOCC2)c(S(N)(=O)=O)c1 (racemic) |  |
| 35 nM | CCc1cnc2c(c1)CCC(CC)N2S(=O)(=O)c1ccc(OCC2CCOCC2)c(CO)c1 (racemic) |  |
| 21 nM | CCc1ccc2c(c1)CCC(CC(C)C)N2S(=O)(=O)c1ccc(OCC2CCOCC2)c(CO)c1 (racemic) |  |
| 32 nM | CCc1ccc2c(c1)CC(CC)CN2S(=O)(=O)c1ccc(OCC2CCOCC2)c(CO)c1 (racemic) |  |
| 36 nM | C=Cc1ccc2c(c1)CCC(CC)N2S(=O)(=O)c1ccc(OCC2CCOCC2)c(CO)c1 (racemic) |  |
|  | O=C([O-])Cc1ccccc1Nc1c(Cl)cccc1Cl.[Na+] [DICLOFENAC SODIUM] | Activity [3]: Non-Toxic; Activity [4]: Non-Toxic; Activity (Mus musculus [5]): Active; Activity [6]: Toxic; Activity [7]: Non-Toxic; Activity [8]: Non-Toxic; Activity [9]: Non-Toxic; Activity (Mus musculus [10]): Active; Activity (Mus musculus [11]): Active; Activity (Mus musculus [12]): Active; Activity (Mus musculus [13]): Active; Activity (Mus musculus [14]): Active; Activity (Mus musculus [15]): Active; Activity (Mus musculus [16]): Active |

Reference: ChEMBL document CHEMBL6127136, “Discovery of 1-(Phenylsulfonyl)-1,2,3,4-tetrahydroquinoline Derivative as Orally Bioavailable and Safe RORγt Inverse Agonists for Potential Treatment of Rheumatoid Arthritis” (J Med Chem, 2024)
